Results on 23 molecules are retold here after patent publication US10800778B2 (Entasis Therapeutics Limited, priority 2016, dated 2020).

Experiment [1] addresses OXA-48 (Class D beta-lactamase) (Klebsiella pneumoniae, UniProt Q6XEC0). The experiment is described as follows: Inhibition of beta-lactamase enzymes (nitrocefin hydrolysis), OXA-48. The note with it: read-out: Class D OXA-48 60 min IC50, nitrocefin 100 μM. The experiment is classed as biochemical. The method, then:
(§1) A buffer consisting of 0.1 M sodium phosphate (pH 7.0), 10 mM NaHCO3, and 0.005% Triton X-100 was used for all enzymes. The chromogenic substrate nitrocefin (SynGene, Bangalore, India) was used at 100 μM. Enzyme activity was monitored by the 490 nm absorbance increase upon nitrocefin hydrolysis. Assays were performed in clear polystyrene 384-well plates (Greiner Bio-One, Monroe, N.C.). Absorbance was measured for 1 hour at 30-s intervals using a Spectramax absorbance plate reader (Molecular Devices, Sunnyvale, Calif.). Measurement of beta-lactamase inhibition by INHIBITOR employed serial 3-fold dilutions of the inhibitor in assay buffer, ranging from 100 μM to 62.7 pM. A background absorbance progress curve for a control lacking enzyme and inhibitor was subtracted from each progress curve.
(§2) The complete set of progress curves for one enzyme with all inhibitor concentrations was subjected to numerical integration with the program Kintek Global Kinetic Explorer (Kintek Corp, Snowshoe Pa.) to obtain a best-fit to the mechanism shown in Scheme 10.
(§3) where E, S, ES, P, I, and EI are the concentrations of the enzyme, nitrocefin, the enzyme-nitrocefin complex, the nitrocefin hydrolysis product, INHIBITOR, and the enzyme-INHIBITOR complex respectively. […] The values of k+2, k+3, and k−3 were fit. Concentration series offsets of the absorbance measurements were used to correct for slight absorbance baseline differences between wells. The parameter k+3 is equivalent to the second order rate constant kinact/Ki. In some cases, the inhibition was in rapid equilibrium on the experimental time scale, so that only the ratio k−3/k+3=Ki could be determined. Although k−3 represents reversal of inhibitor binding in Scheme 10, hydrolysis of the enzyme-inhibitor complex could not be excluded based on kinetic measurements.
(§4) Best-fit absorbance values from the above procedure at each time point for each compound concentration were exported to Excel.
(§5) where A is the best-fit absorbance without inhibitor and Ainhib is the best-fit absorbance in the presence of the inhibitor.
(§6) where [I] is the inhibitor concentration and n is the Hill coefficient. The Excel add-in XLfit (ID Business Solutions) was used for nonlinear regression.

For experiment [2], the target named is TEM-1 (Class A beta-lactamase) (Escherichia coli, UniProt P62593). The experiment is described as follows: Inhibition of beta-lactamase enzymes (nitrocefin hydrolysis), TEM-1. The settings on record: read-out: Class A TEM-1 60 min IC50, nitrocefin 100 μM. The experiment is classed as biochemical. As to the method:
as §1, §2, §3, §4, §5, §6

pIC50: −log10 of the molar value. Structures can show the parent of a compound that is named as a salt.

TEM-1 (Class A beta-lactamase), sequence (P62593 whole entry, looked up, species assumed): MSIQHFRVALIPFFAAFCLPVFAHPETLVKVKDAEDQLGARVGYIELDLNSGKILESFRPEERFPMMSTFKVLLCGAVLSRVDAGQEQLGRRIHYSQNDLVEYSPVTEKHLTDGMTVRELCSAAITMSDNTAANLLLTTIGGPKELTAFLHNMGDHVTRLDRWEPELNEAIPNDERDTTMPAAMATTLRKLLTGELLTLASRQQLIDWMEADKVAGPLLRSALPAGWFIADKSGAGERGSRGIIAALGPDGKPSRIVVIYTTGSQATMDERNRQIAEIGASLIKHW
OXA-48 (Class D beta-lactamase), sequence (Q6XEC0 whole entry, looked up, species assumed): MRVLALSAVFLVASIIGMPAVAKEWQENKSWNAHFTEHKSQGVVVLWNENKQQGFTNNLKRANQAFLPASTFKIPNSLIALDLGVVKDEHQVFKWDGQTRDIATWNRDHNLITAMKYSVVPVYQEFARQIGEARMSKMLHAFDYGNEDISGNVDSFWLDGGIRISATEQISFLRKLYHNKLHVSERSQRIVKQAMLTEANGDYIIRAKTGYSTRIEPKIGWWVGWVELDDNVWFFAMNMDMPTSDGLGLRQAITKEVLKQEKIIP

As a reminder, the pIC50 is the negative decadic logarithm of the IC50, by convention in mol/L. As to `CC1=C[C@@H]2CN(C(=O)N2O[C@@H](F)C(=O)O)[C@@H]1C(=O)NOCCS(N)(=O)=O` [Example 56, (2S)-2-fluoro-2-[[(2S,5R)-3-methyl-7-oxo-2-(2-sulfamoylethoxycarbamoyl)-1,6-diazabicyclo[3.2.1]oct-3-en-6-yl]oxy]acetic acid lithium salt], the values for the pIC50 in experiment [1] and in experiment [2] were 6.66 and 7.03, respectively.

Turning to `CC1=C[C@@H]2CN(C(=O)N2O[C@@H](F)C(=O)O)[C@@H]1C(=O)NCCC(N)=O` [Example 71, (2S)-2-[[(2S,5R)-2-[(3-amino-3-oxo-propyl)carbamoyl]-3-methyl-7-oxo-1,6-diazabicyclo[3.2.1]oct-3-en-6-yl]oxy]-2-fluoro-acetic acid lithium salt], the pIC50 in experiment [1] was 7.12; in experiment [2], 6.96.

`NC(=O)[C@@H]1C(C2CC2)=C[C@@H]2CN1C(=O)N2O[C@H](F)C(=O)O` [Example 41, (2R)-2-(((2S,5R)-2-carbamoyl-3-cyclopropyl-7-oxo-1,6-diazabicyclo[3.2.1]oct-3-en-6-yl)oxy)-2-fluoroacetic acid lithium salt]: the pIC50 in experiment [1] is 8.19; in experiment [2] it was 8.46.

As for `CC1=C[C@@H]2CN(C(=O)N2OC(C)(F)C(=O)O)[C@@H]1C(N)=O` (mixture of isomers) [Example 11, 2-{[(2S,5R)-2-carbamoyl-3-methyl-7-oxo-1,6-diazabicyclo[3.2.1]oct-3-en-6-yl]oxy}-2-fluoropropanoic acid lithium salt (mixture of diastereomers)], the values for the pIC50 in experiment [1] and in experiment [2] were 4.66 and 6.64, respectively.

For the molecule `NC(=O)[C@@H]1C(C2CC2)=C[C@@H]2CN1C(=O)N2OC(F)C(=O)O` (stereo in doubt) [Example 42, (2R)-2-(((2S,5R)-2-carbamoyl-3-cyclopropyl-7-oxo-1,6-diazabicyclo[3.2.1]oct-3-en-6-yl)oxy)-2-fluoroacetic acid lithium salt], the results for the pIC50 in experiment [1] and in experiment [2] were 8.28 and 7.62, respectively.

Consider `CC1=C[C@@H]2CN(C(=O)N2O[C@@H](F)C(=O)O)[C@@H]1C(=O)NC1COC1` [Example 66, (2S)-2-fluoro-2-[[(2S,5R)-3-methyl-2-(oxetan-3-ylcarbamoyl)-7-oxo-1,6-diazabicyclo[3.2.1]oct-3-en-6-yl]oxy]acetic acid lithium salt], for which the pIC50 in experiment [1] is 7.92; in experiment [2], 6.18.

In the case of `NC(=O)[C@@H]1CC[C@@H]2CN1C(=O)N2O[C@H](F)C(=O)O` [Comparator 98, reference compound], the values for the pIC50 in experiment [1] and in experiment [2] were 5.59 and 8.89, respectively.

As for `CC1=C[C@@H]2CN(C(=O)N2O[C@@H](F)C(=O)O)[C@@H]1CN` [Example 77, (2S)-2-[[(2S,5R)-2-(aminomethyl)-3-methyl-7-oxo-1,6-diazabicyclo[3.2.1]oct-3-en-6-yl]oxy]-2-fluoro-acetic acid], the pIC50 in experiment [1] and in experiment [2] was less than 4.00 throughout.

As to `CC(=O)NC[C@@H]1C(C)=C[C@@H]2CN1C(=O)N2O[C@@H](F)C(=O)O` [Example 78, (2S)-2-[[(2S,5R)-2-(acetamidomethyl)-3-methyl-7-oxo-1,6-diazabicyclo[3.2.1]oct-3-en-6-yl]oxy]-2-fluoro-acetic acid lithium salt], the pIC50 is 6.16 in experiment [1] and 5.44 in experiment [2].

With `CC1=C[C@@H]2CN(C(=O)N2O[C@@H](F)C(=O)O)[C@@H]1C(=O)NOC[C@@H]1CC(F)(F)CN1` [Example 63, (2S)-2-(((2S,5R)-2-((((S)-4,4-difluoropyrrolidin-2-yl)methoxy)carbamoyl)-3-methyl-7-oxo-1,6-diazabicyclo[3.2.1]oct-3-en-6-yl)oxy)-2-fluoroacetic acid TFA salt], the pIC50 in experiment [1] was 6.64; in experiment [2] it was 6.96.

Regarding `CC1=C[C@@H]2CN(C(=O)N2O[C@@H](F)C(=O)O)[C@@H]1C(=O)NCO` [Example 87, (2S)-2-fluoro-2-[[(2S,5R)-2-(hydroxymethylcarbamoyl)-3-methyl-7-oxo-1,6-diazabicyclo[3.2.1]oct-3-en-6-yl]oxy]acetic acid lithium salt], the pIC50 is 7.96 in experiment [1] and 6.82 in experiment [2].

For the molecule `CC1=C[C@@H]2CN(C(=O)N2O[C@@H](F)C(=O)O)[C@@H]1C(=O)NCCS(N)(=O)=O` [Example 57, (2S)-2-fluoro-2-[[(2S,5R)-3-methyl-7-oxo-2-(2-sulfamoylethylcarbamoyl)-1,6-diazabicyclo[3.2.1]oct-3-en-6-yl]oxy]acetic acid lithium salt], the values for the pIC50 in experiment [1] and in experiment [2] were 6.39 and 7.24, respectively.

On to `CC1=C[C@@H]2CN(C(=O)N2OC(F)C(=O)O)[C@@H]1C(N)=O` (mixture of isomers) [Example 5, {[(2S,5R)-2-carbamoyl-3-methyl-7-oxo-1,6-diazabicyclo[3.2.1]oct-3-en-6-yl]oxy}(fluoro)acetic acid lithium salt (mixture of diastereomers)], for which the pIC50 in experiment [1] was 7.77; in experiment [2] it was 8.36.

As to `CC1=C[C@@H]2CN(C(=O)N2O[C@@H](F)C(=O)O)[C@@H]1C(=O)NCc1cnccn1` [Example 69, (2S)-2-fluoro-2-[[(2S,5R)-3-methyl-7-oxo-2-(pyrazin-2-ylmethyl-carbamoyl)-1,6-diazabicyclo[3.2.1]oct-3-en-6-yl]oxy]acetic acid lithium salt], the negative logarithm of the IC50 (pIC50) was 6.96 in experiment [1] and 6.74 in experiment [2].

With `CC1=C[C@@H]2CN(C(=O)N2O[C@@H](F)C(=O)O)[C@@H]1C(=O)NCC[C@@H]1CCC(=O)N1` [Example 73, (2S)-2-fluoro-2-[[(2S,5R)-3-methyl-7-oxo-2-[2-(5-oxopyrrolidin-2-yl)ethylcarbamoyl]-1,6-diazabicyclo[3.2.1]oct-3-en-6-yl]oxy]acetic acid lithium salt], the pIC50 was 6.28 in experiment [1] and 6.14 in experiment [2].

As for `CC1=C[C@@H]2CN(C(=O)N2O[C@@H](F)C(=O)O)[C@@H]1C(=O)NCC#N` [Example 82, (2S)-2-fluoro-2-[[(2S,5R)-2-(cyanomethylcarbamoyl)-3-methyl-7-oxo-1,6-diazabicyclo[3.2.1]oct-3-en-6-yl]oxy]acetic acid lithium salt], the pIC50 in experiment [1] was 7.55; in experiment [2] it was 7.07.

For `CC1=C[C@@H](C#N)N2C[C@@H]1N(O[C@H](F)C(=O)O)C2=O` [Example 95, (2R)-2-(((2S,5R)-2-cyano-4-methyl-7-oxo-1,6-diazabicyclo[3.2.1]oct-3-en-6-yl)oxy)-2-fluoroacetic acid lithium salt], the pIC50 is 8.89 in experiment [1] and 7.46 in experiment [2].

In the case of `CC1=C[C@@H]2CN(C(=O)N2O[C@@H](F)C(=O)O)[C@@H]1C(=O)NCNS(N)(=O)=O` [Example 89, lithium salt], the figures for the pIC50 in experiment [1] and in experiment [2] were 6.82 and 7.48, respectively.

Consider `CC1=C[C@@H]2CN(C(=O)N2O[C@@H](F)C(=O)O)[C@@H]1CNC(=O)C(F)(F)F` [Example 79, (2S)-2-fluoro-2-[[(2S,5R)-3-methyl-7-oxo-2-[[(2,2,2-trifluoroacetyl)-aminolmethyl]-1,6-diazabicyclo[3.2.1]oct-3-en-6-yl]oxy]acetic acid lithium salt], for which the values for the pIC50 in experiment [1] and in experiment [2] were 5.24 and 5.38, respectively.

Regarding `CC1=C[C@@H]2CN(C(=O)N2OC(F)C(=O)O)[C@@H]1c1nnc(C(N)=O)o1` (stereo partly drawn) [Example 55, 2-[[(2S,5R)-2-(5-carbamoyl-1,3,4-oxadiazol-2-yl)-3-methyl-7-oxo-1,6-diazabicyclo[3.2.1]oct-3-en-6-yl]oxy]-2-fluoro-acetic acid lithium salt], the pIC50 in experiment [1] is 8.14; in experiment [2], 7.62.

In the case of `CC1=C[C@@H]2CN(C(=O)N2OC(F)C(=O)O)[C@@H]1C(=O)NCc1cnccn1` (stereo partly drawn) [Example 30, 2-fluoro-2-(((2S,5R)-3-methyl-7-oxo-2-((pyrazin-2-ylmethyl)carbamoyl)-1,6-diazabicyclo[3.2.1]oct-3-en-6-yl)oxy)acetic acid lithium salt], the figures for the pIC50 in experiment [1] and in experiment [2] were 6.85 and 7.09, respectively.

On to `O=C(O)C(F)ON1C(=O)N2C[C@H]1CC[C@H]2C(=O)NC1CCNCC1` (stereo partly shown) [Comparator 99, reference compound], for which the pIC50 in experiment [1] is 4.09; in experiment [2] it was 7.52.

In the case of `CC(=O)NNC(=O)[C@@H]1C(C)=C[C@@H]2CN1C(=O)N2OC(F)C(=O)O` (stereo partly drawn) [Example 27, 2-(((2S,5R)-2-(2-acetylhydrazinecarbonyl)-3-methyl-7-oxo-1,6-diazabicyclo[3.2.1]oct-3-en-6-yl)oxy)-2-fluoroacetic acid lithium salt], the values for the pIC50 in experiment [1] and in experiment [2] were 7.74 and 7.33, respectively.
